Earlier results on two compounds are cited in patent publication US20050158845A1 (priority 2001, published 2005).

The test system of the data set is human hepatocyte and neuroblastoma cells. The following applies: cited from earlier work.

`CCOP(=O)(OCC)Oc1ccc([N+](=O)[O-])cc1` [paraoxon]: the “effects on hepatocyte and neuroblastoma cell metabolism” value is “opposite effects”.

In the case of `CCOP(=S)(OCC)Oc1ccc([N+](=O)[O-])cc1` [parathion], the “effects on hepatocyte and neuroblastoma cell metabolism” value is given as “opposite effects”.
